Each structure is given as a SMILES string.

A short description of this test: Antagonist activity at lasB in Pseudomonas aeruginosa harboring lasB-gfp gene assessed as inhibition of […]-induced quorum sensing by green fluorescence protein reporter assay.
With `O=C(Cn1cc(C2CCCC2)nn1)N[C@H]1CCOC1=O`, the IC50 worked out at 610 µM. Take `O=C(Cn1cc(C2CC2)nn1)N[C@H]1CCOC1=O`: the IC50 was found to be 499 µM.

On to `[N-]=[N+]=Nc1ccc(C(=O)N[C@H]2CCOC2=O)cc1`, for which the IC50 came out at 1100 µM. To `O=C(Cn1cc(CSc2ccccc2)nn1)N[C@H]1CCOC1=O` belongs 692 µM. For the compound `O=Cc1cccc(-n2cc(CCC(=O)N[C@H]3CCOC3=O)nn2)c1`, the concentration for half-maximal inhibition (IC50) was 381 µM. For the compound `CCCc1cn(CC(=O)N[C@H]2CCOC2=O)nn1`, the IC50 came to 678 µM. As for `O=C(Cn1cc(C2CCCCC2)nn1)N[C@H]1CCOC1=O`, the concentration for half-maximal inhibition (IC50) was determined as 889 µM. As to `O=C(Cn1cc(-c2ccsc2)nn1)N[C@H]1CCOC1=O`, the IC50 turned out to be 582 µM. `CCCCCCc1cn(CC(=O)N[C@H]2CCOC2=O)nn1`: the IC50 was found to be 425 µM.

Values taken from BindingDB's records for doi:10.1016/j.bmc.2015.01.038 (Technical University of Denmark, 2015).
